# Measured values from paper PMC7248098, “Biochemical characterization and inhibition of the alternative oxidase enzyme from the fungal phytopathogen Moniliophthora perniciosa” (Communications Biology, 2020).
# Where “and” joins values, the source holds several entries; their conditions need not be identical. Identical values can stand only once. Like-named read-outs stand apart in the source and are kept apart here.
# Tests used:
# membrane-bound rMpAOX = membrane-bound rMpAOX (Moniliophthora perniciosa, UniProt A8QJP8); assay: Dose-response assay of inhibitors with membrane-bound, GMP-activated rMpAOX (NADH oxidation); assay type: biochemical
# Method: E. coli membrane preparation was performed as described with minor modifications. […] The cells were disrupted using two passes at […] through a pre-cooled Constant cell disruption system (Constant Systems Ltd). The lysate was centrifuged for 15 min at 16,000 rcf, and the pelleted unbroken cells and large cell debris were discarded. The supernatant was centrifuged for 90 min at 200,000 rcf to collect the fragmented membranes.
# (§1) Respiration rates were recorded before and after the addition of putative AOX activators, such as 5′-ADP, 5′-AMP, 5′-GDP, 5′-GMP, glyoxylate, oxaloacetate, pyruvate or succinate (1 mM each unless stated otherwise). […] Data were acquired with the Multiskan FC Microplate Photometer (ThermoFisher). […] Absorbance readings were taken periodically and a blank reactions (substrate without enzyme) were included in every assay and were used to determine and subtract the autoxidation rate (background). Proteoliposomes were assayed as described for the E. coli membrane fraction except that no KCN was included and 0.5 µL of the prep (~50 ng rMpAOX) were added into the reaction. When tested, inhibitors were preincubated with the enzyme in reaction buffer for 2–5 min before starting the reaction by the addition of substrate. The path length (i.e., the height of the reaction medium inside the well) was calculated based on the reaction volume and the well cross-section area informed by the supplier. GraphPad Prism 7.0 (GraphPad Software Inc.) was used for function fitting.
# membrane-bound TAO [1] = assay: Inhibition of membrane-bound TAO (literature); assay type: biochemical, Trypanosoma brucei; conditions: from literature IC50 values
# membrane-bound TAO [2] = tested on: membrane-bound TAO; set-up: method as in PMID 23180806; conditions: cited from earlier work
# purified rMpAOX = purified rMpAOX (Moniliophthora perniciosa, UniProt A8QJP8); assay: Purified (detergent-solubilised) rMpAOX, Q1H2 oxidation; assay type: biochemical
# Method: The E. coli membrane fraction was resuspended with 50 mM Tris-HCl pH 7.5, 20% glycerol, 200 mM MgSO4 and 1% Fos-Choline-12 (FC-12) instead of MOPS buffer. The sample was left under gentle rocking for 1 h at 4 °C, after which it was centrifuged at 200,000 rcf for 30 min. […] T. Elthon, Nebraska, USA. Protein content was estimated through the Bradford method[63] and bovine serum albumin as standard.
# as §1
# [3] = biological target: rMpAOX incorporated into proteoliposomes (Moniliophthora perniciosa, UniProt A8QJP8); assay: rMpAOX incorporated into proteoliposomes with Q10 and NDH-2 (NADH oxidation); assay type: biochemical
# Method: Proteoliposomes (PL) were prepared as previously described[44],[45], except that NDH-2 was used instead of complex I and 0.5% DDM was used instead of OG. […] For kinetic studies, PLs were prepared with 50 µg rMpAOX and no NDH-2—in this case, pure NDH-2 was added directly into the enzymatic reaction mixture at a saturating concentration. Briefly, lipids and Q10 stocks in chloroform were mixed in a glass vial and the chloroform dried under a nitrogen stream. The lipids were hydrated and extruded through a 100 nm NanoSizer MINI Liposome Extruder (T&T Scientific) followed by the addition of protein. After treatment with the Bio-Beads SM-2 Resin (Bio-Rad), proteolipososmes were harvested by ultracentrifugation and resuspended in 150 µL of buffer. Enzymatic assays were performed on the same day.
# as §1
# solubilised TAO = tested on: solubilised TAO; set-up: method as in PMID 29107420; conditions: cited from earlier work
# [4] = tested on: TAO incorporated into PLs; set-up: method as in PMID 29133414; conditions: cited from earlier work
# [5] = log[I], M -5.60206 (Fig2b), 2.5 µM
# [6] = log[I], M -6.60206 (Fig2b), 0.25 µM
# [7] = log[I], M -8.60206 (Fig2b), 0.0025 µM
# [8] = log[I], M -9.60206 (Fig2b), 0.00025 µM
# [9] = log[I], M -10.6021 (Fig2b), 25 pM
# Chain of membrane-bound rMpAOX (A8QJP8 entry or part of it): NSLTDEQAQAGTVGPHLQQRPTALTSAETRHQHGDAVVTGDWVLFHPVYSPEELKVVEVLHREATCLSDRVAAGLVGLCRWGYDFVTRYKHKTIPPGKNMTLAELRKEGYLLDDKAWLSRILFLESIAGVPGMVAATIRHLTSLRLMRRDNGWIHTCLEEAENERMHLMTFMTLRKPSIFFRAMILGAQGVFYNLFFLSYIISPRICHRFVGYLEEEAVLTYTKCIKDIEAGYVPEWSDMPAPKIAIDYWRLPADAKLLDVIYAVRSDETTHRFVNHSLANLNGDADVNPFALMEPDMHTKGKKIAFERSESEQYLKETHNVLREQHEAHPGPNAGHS
# Chain of purified rMpAOX (A8QJP8 entry or part of it): as above
# Chain of rMpAOX incorporated into proteoliposomes (A8QJP8 entry or part of it): as above
structure (smiles),measurement,setting,value
"CC(/C=C/[C@@]1(C)[C@H](C)CCC(=O)[C@@H]1C)=C\Cc1c(O)c(Cl)c(C)c(C=O)c1O [AC, ascochlorin]",IC50,membrane-bound rMpAOX,5250 nM
same,"Fractional velocity, %",membrane-bound rMpAOX; [5],73.3239% and 61.6121%
same,"Fractional velocity, %",membrane-bound rMpAOX; [6],96.489% and 80.5494%
same,"Fractional velocity, %","membrane-bound rMpAOX; log[I], M -7.60206 (Fig2b), 0.025 µM",98.3896% and 89.3939%
same,"Fractional velocity, %",membrane-bound rMpAOX; [7],99.2565% and 89.0077%
same,"Fractional velocity, %",membrane-bound rMpAOX; [8],97.0686% and 90.2842%
same,"Fractional velocity, %",membrane-bound rMpAOX; [9],95.0559% and 89.2874%
same,activity at 2.5 µM,"membrane-bound rMpAOX; read-out: Fractional velocity, %, log[I], M -5.60206 (Fig2b)",60.8%
same,activity at 0.25 µM,"membrane-bound rMpAOX; read-out: Fractional velocity, %, log[I], M -6.60206 (Fig2b)",92.8%
same,activity at 0.025 µM,"membrane-bound rMpAOX; read-out: Fractional velocity, %, log[I], M -7.60206 (Fig2b)",98.2%
same,activity at 0.0025 µM,"membrane-bound rMpAOX; read-out: Fractional velocity, %, log[I], M -8.60206 (Fig2b)",97.9%
same,activity at 0.00025 µM,"membrane-bound rMpAOX; read-out: Fractional velocity, %, log[I], M -9.60206 (Fig2b)",95.5%
same,activity at 25 pM,"membrane-bound rMpAOX; read-out: Fractional velocity, %, log[I], M -10.6021 (Fig2b)",93.4%
same,Ratio of AC IC50 to CB IC50 (TAO),membrane-bound TAO [1],7.5
same,IC50,membrane-bound TAO [2],1.5 nM
"CC(C)=CCC/C(C)=C/Cc1c(O)c(Cl)c(C)c(C=O)c1O [CB, colletochlorin B]","Fractional velocity, %","membrane-bound rMpAOX; log[I], M -4.60206 (Fig2b), 25 µM",2.536% and 2.662% and 8.437%
same,"Fractional velocity, %",membrane-bound rMpAOX; [5],2.977% and 3.203% and 8.094%
same,"Fractional velocity, %",membrane-bound rMpAOX; [6],4.262% and 7.7642% and 10.3237%
same,"Fractional velocity, %",membrane-bound rMpAOX; [7],76.0268% and 98.1726% and 76.3221%
same,"Fractional velocity, %",membrane-bound rMpAOX; [8],96.6921% and 90.9449%
same,activity at 0.00025 µM,"membrane-bound rMpAOX; log[I], M -9.60206 (Fig2b), read-out: Fractional velocity, %",96.2%
same,"Fractional velocity, %",membrane-bound rMpAOX; [9],95.8052% and 91.68%
same,activity at 25 pM,"membrane-bound rMpAOX; log[I], M -10.6021 (Fig2b), read-out: Fractional velocity, %",92%
same,IC50,"membrane-bound rMpAOX; membrane-bound, GMP-activated rMpAOX, read-out: IC50",14.8 nM
same,Ki,"purified rMpAOX; Morrison equation for tight-binders, read-out: KIapp",13.9 nM
same,activity at 2.5 pM,"purified rMpAOX; [I], M 2.5e-12, read-out: Dose-response assay with CB, (Fig3d)",99.5%
same,activity at 10 pM,"purified rMpAOX; [I], M 1e-11, read-out: Dose-response assay with CB, Fig3d",98%
same,activity at 25 pM,"purified rMpAOX; [I], M 2.5e-11, read-out: Dose-response assay with CB, (Fig3d)",99%
same,activity at 0.0001 µM,"purified rMpAOX; [I], M 1e-10, read-out: Dose-response assay with CB, Fig3d",100%
same,activity at 0.00025 µM,"purified rMpAOX; [I], M 2.5e-10, read-out: Dose-response assay with CB, (Fig3d)",99.7%
same,activity at 0.001 µM,"purified rMpAOX; [I], M 1e-9, read-out: Dose-response assay with CB, Fig3d",96.8%
same,activity at 0.0025 µM,"purified rMpAOX; [I], M 2.5e-9, read-out: Dose-response assay with CB, (Fig3d)",94.6%
same,activity at 0.01 µM,"purified rMpAOX; [I], M 1e-8, read-out: Dose-response assay with CB, Fig3d",79.3%
same,activity at 0.025 µM,"purified rMpAOX; [I], M 2.5e-8, read-out: Dose-response assay with CB, (Fig3d)",69.2%
same,activity at 0.1 µM,"purified rMpAOX; [I], M 1e-7, read-out: Dose-response assay with CB, Fig3d",36.9%
same,activity at 0.25 µM,"purified rMpAOX; [I], M 2.5e-7, read-out: Dose-response assay with CB, (Fig3d)",22.7%
same,activity at 1 µM,"purified rMpAOX; [I], M 1e-6, read-out: Dose-response assay with CB, Fig3d",8.98%
same,activity at 2.5 µM,"purified rMpAOX; [I], M 2.5e-6, read-out: Dose-response assay with CB, (Fig3d)",10.4%
same,activity at 10 µM,"purified rMpAOX; [I], M 1e-5, read-out: Dose-response assay with CB, Fig3d",2.99%
same,activity at 25 µM,"purified rMpAOX; [I], M 2.5e-5, read-out: Dose-response assay with CB, (Fig3d)",0%
same,activity at 100 µM,"purified rMpAOX; [I], M 0.0001, read-out: Dose-response assay with CB, Fig3d",3.34%
same,CB-to-rMpAOX ratio at the IC50 concentration,purified rMpAOX; enzyme 49.1 nM,1.2
same,IC50,"purified rMpAOX; purified rMpAOX, enzyme 49.1 nM",59.3 nM
same,"Fractional velocity, %","[3]; log[CB], M -4.60206 (Fig4b), 25 µM",2.151%
same,activity at 25 µM,"[3]; log[CB], M -4.60206 (Fig4b), read-out: Fractional velocity, %",2.86%
same,"Fractional velocity, %","[3]; log[CB], M -5.60206 (Fig4b), 2.5 µM",4.07%
same,activity at 2.5 µM,"[3]; log[CB], M -5.60206 (Fig4b), read-out: Fractional velocity, %",3.2%
same,"Fractional velocity, %","[3]; log[CB], M -6.60206 (Fig4b), 0.25 µM",11.8798%
same,activity at 0.25 µM,"[3]; log[CB], M -6.60206 (Fig4b), read-out: Fractional velocity, %",11.1%
same,"Fractional velocity, %","[3]; log[CB], M -7.60206 (Fig4b), 0.025 µM",47.093%
same,activity at 0.025 µM,"[3]; log[CB], M -7.60206 (Fig4b), read-out: Fractional velocity, %",46.1%
same,"Fractional velocity, %","[3]; log[CB], M -8.60206 (Fig4b), 0.0025 µM",86.8217%
same,activity at 0.0025 µM,"[3]; log[CB], M -8.60206 (Fig4b), read-out: Fractional velocity, %",74.5%
same,"Fractional velocity, %","[3]; log[CB], M -9.60206 (Fig4b), 0.00025 µM",97.2868%
same,activity at 0.00025 µM,"[3]; log[CB], M -9.60206 (Fig4b), read-out: Fractional velocity, %",99.3%
same,"Fractional velocity, %","[3]; log[CB], M -10.6021 (Fig4b), 25 pM",98.4496%
same,activity at 25 pM,"[3]; log[CB], M -10.6021 (Fig4b), read-out: Fractional velocity, %",98.7%
same,activity at 2.5 pM,"[3]; log[CB], M -11.6021 (Fig4b), read-out: Fractional velocity, %",100%
same,IC50,"[3]; proteoliposomes with rMpAOX, Q10 and NDH-2",19.5 nM
same,IC50,membrane-bound TAO [2],0.2 nM
same,CB-to-enzyme ratio at the IC50 concentration,solubilised TAO,1.3
same,CB-to-enzyme ratio at the IC50 concentration,[4],1.4
